Experimental data as given in patent US20060051354A1, “Chemotherapeutic agents as anti-cancer vaccine adjuvants and therapeutic methods thereof” (priority 2002, published 2006).

Legend:
[1] = i.m., 50 μl, various concentrations, after 7 days
Description: Paclitaxel (PTX) (Bristol-Myers Squibb, Princeton, N.J.), Doxorubicin (DOX) (Gensia, Irvine, Calif.), and Cisplatin (CIS) (Bristol-Myers Squibb) are diluted before injection. Cyclophosphamide (CTX) (Bristol-Myers Squibb) is diluted in sterile water before injection. PTX, CTX, Dox and CIS are injected intramuscularly (i.m.). (50 μl containing various concentrations of chemotherapeutic agents). Muscles are harvested and sectioned to perform histological analysis to assess tissue damage.

melanoma = conditions: pretreatment with low dose cyclophosphamide before melanoma vaccine, after 2 months of immunization; cited from earlier work
C2C12 cells = assay: Paclitaxel toxicity on differentiated C2C12 cells; assay type: cell-based; conditions: various concentrations, even high concentration, non-dividing cells
Description: […] cells were plated in a 12-wells plate at 7×10^4 cells/ml/well in complete DMEM (10 FBS, 1% Strepto-pen, 1% Hepes) and incubated O/N at 37° C. under 5% CO2 atmosphere. Twenty-four hours later, normal DMEM was changed for DMEM containing 2% Horse serum, 1% Strepto-pen and 1% Hepes. The medium was then changed everyday with the complete DMEM 2% Horse serum. For an extra 7 days, complete DMEM 10% Horse serum was added to the cells. After about 1 week, all cells were differentiated and treated with various concentrations of paclitaxel. Even at a high concentration of paclitaxel, differentiated cells now forming elongated muscular fibers, were not affected by any treatment probably due to the non-dividing state of the cells. This observation support the fact that drugs can be injected in the muscle without necessarily causing damages or cell death.

B16 cells = assay: Melanine levels in B16 cells pretreated with paclitaxel; assay type: cell-based
Description: This unexpected observation lead to the immunological rationale for testing immune-modulating doses of chemotherapy in combination with an antigen. As described in Example II, paclitaxel increased the humoral response against ovalbumin. The testing of paclitaxel as improving a whole-cell vaccine in mice was performed as shown in Examples III and V. This principle is illustrated in FIG. 1. Sterilizing cancer cells with chemotherapeutic agents before immunization of the mice with a composition of cancer cells undergoing apoptosis and/or necrosis and chemotherapeutic agents protected the animals against a lethal tumor challenge. This was unexpected since chemotherapeutic agents are known to be toxic and to trigger systemic immunosuppression. Also, to have in one single composition a chemotherapeutic agent(s) and an antigen administered simultaneously simplifies the use of chemotherapeutic agents as potential vaccine adjuvants. The presence of the chemotherapeutic agent in the anti-cancer vaccine composition also renders moot or diminish the need to proceed to the inactivation by irradiation of the tumoral cells forming the anti-cancer vaccine before reinoculation. The drugs, especially paclitaxel, helps to raise an immune response by inducing a variety of genes known to be antigenic. […]

MCP-1 = assay: Paclitaxel induces MCP-1 in muscle tissue (RT-PCR); assay type: in vivo, Mice; conditions: i.m., muscle harvested 6 hours after injection
Description: Mice are injected intramuscularly (bilaterally) with varying doses of paclitaxel (100 μM to 0.01 μM). Doses of paclitaxel are prepared by 10-fold serial dilutions, in saline, of a 10 mM DMSO stock. The muscles are harvested, on dry ice, 6 hours following injection, and frozen at −80° C. RNA is isolated using TRIZOL reagent (Gibco) as per manufacturers specifications. Ten micrograms of total RNA is reverse transcribed using Superscript RT (Gibco), 500 ng oligodT primers (Gibco), and 250 ng Random Hexamer primers (Gibco) for 20 minutes at room temperature, followed by 2 hours at 42° C.
MCP-1 is amplified from 2 μl of reverse transcription reaction using Titanium PCR kit (Clontech). Amplification primers are as follows:
The PCR reaction is performed for 30 cycles using 100 pmole for each primer, with an annealing temperature of 68 degrees. The PCR products are analyzed on a 1.5% agarose gel, and have an expected size of 397 bps.

ovalbumin = assay: Humoral response against ovalbumin (ELISA) after intramuscular immunization; assay type: in vivo, Mice; conditions: 1 μg ovalbumin i.m. without adjuvant, 2 weeks
Description: The animals are injected intramuscularly into tibialis anterior muscles with 50 μl containing either 1 μg of ovalbumin formulated with or without paclitaxel at 10E^−2 molar. Mice are sacrificed at various time points to perform the ELISA (2 weeks post-immunization). Ovalbumin-specific antibody responses are quantified by enzyme-linked immunosorbent assay (ELISA). Microtiter plates are coated overnight with 1 μg per well of ovalbumin. Plates are then washed once with PBS-Tween 0.01% and blocked for 2 hours at 37° C. with PBS+1% BSA. The plates are then incubated with serial dilutions of mouse sera for 1 hour at 37° C. […] The data are expressed as the percentage of responding mice and as the mean titers of responding mice.

Row | Molecule | infiltration of lymphocytes (histology of injected muscle) [1] | tissue damage (histology of injected muscle) [1] | further results
1 | N.N.[Cl][Pt][Cl] [Cisplatin] | mild to moderate | no sign of tissue damage | 
2 | O=P1(N(CCCl)CCCl)NCCCO1 (stereo not drawn) [Cyclophosphamide] | mild to moderate | no sign of tissue damage | patients with augmented antibody and/or cellular immune responses to melanoma (melanoma): 83%
3 | COc1cccc2c1C(=O)c1c(O)c3c(c(O)c1C2=O)C[C@@](O)(C(=O)CO)C[C@@H]3O[C@H]1C[C@H](N)[C@H](O)[C@H](C)O1 [Doxorubicin] | mild to moderate | no sign of tissue damage | 
4 | CC(=O)O[C@H]1C(=O)[C@@]2(C)[C@H]([C@H](OC(=O)c3ccccc3)[C@]3(O)C[C@H](OC(=O)[C@H](O)[C@@H](NC(=O)c4ccccc4)c4ccccc4)C(C)=C1C3(C)C)[C@]1(OC(C)=O)CO[C@@H]1C[C@@H]2O [Paclitaxel] | mild to moderate | no sign of tissue damage | effect on differentiated C2C12 cells (toxicity) (C2C12 cells): not affected; Melanine levels in B16 cells (B16 cells): increases; Fold-induction over GAPDH (MCP-1 RT-PCR) (MCP-1; 0.01 μM per injection): 2 fold; Fold-induction over GAPDH (MCP-1 RT-PCR) (MCP-1; 1 μM per injection): 3 fold; Fold-induction over GAPDH (MCP-1 RT-PCR) (MCP-1; 100 μM per injection): 6 fold
5 | Ovalbumin: model protein antigen injected without adjuvant (protein, UniProt P01012 2-386, looked up) Ovalbumin: GSIGAASMEFCFDVFKELKVHHANENIFYCPIAIMSALAMVYLGAKDSTRTQINKVVRFDKLPGFGDSIEAQCGTSVNVHSSLRDILNQITKPNDVYSFSLASRLYAEERYPILPEYLQCVKELYRGGLEPINFQTAADQARELINSWVESQTNGIIRNVLQPSSVDSQTAMVLVNAIVFKGLWEKAFKDEDTQAMPFRVTEQESKPVQMMYQIGLFRVASMASEKMKILELPFASGTMSMLVLLPDEVSGLEQLESIINFEKLTEWTSSNVMEERKIKVYLPRMKMEEKYNLTSVLMAMGITDVFSSSANLSGISSAESLKISQAVHAAHAEINEAGREVVGSAEAGVDAASVSEEFRADHPFLFCIKHIATNAVLFFGRCVSP |  |  | % seroconversion (ovalbumin): 20%
